PMC6178619, “Arylvinylpiperazine Amides, a New Class of Potent Inhibitors Targeting QcrB of Mycobacterium tuberculosis” (mBio, 2018)
Converted amounts (≈) assume the structure as drawn. Like-named read-outs stand apart in the source and are kept apart here.

What was measured:
[1] = system: Corynebacterium glutamicum; experiment: MIC by REMA; format: cell-based
M. tuberculosis H37Rv [2] = details: cited from earlier work
[3] = system: Mycobacterium massiliense; experiment: MIC by REMA; format: cell-based; details: Mycobacteroides abscessus
Staphylococcus aureus = experiment: MIC by REMA; format: cell-based
[4] = system: M. tuberculosis H37Rv ΔcydAB; format: cell-based; details: ΔcydAB strain; AX-35 14 µM, Q203 0.3 µM (100× MIC50)
[5] = system: Corynebacterium diphtheriae; experiment: MIC by REMA; format: cell-based
Mycobacterium bovis BCG = experiment: microbe, parasite or virus in culture; format: cell-based; details: Mycobacterium tuberculosis variant bovis BCG
M. tuberculosis H37Rv [6] = experiment: MIC by resazurin reduction microplate assay (REMA); format: cell-based, Mycobacterium tuberculosis
M. tuberculosis H37Rv [7] = experiment: Acute mouse model of TB; format: in vivo, mouse (BALB/c); details: for Reduction of bacterial load in mouse lungs vs TPGS vehicle control: once daily for 10 days
Escherichia coli = experiment: MIC by REMA; format: cell-based
Mycobacterium vaccae = experiment: MIC by REMA; format: cell-based; details: Mycolicibacterium vaccae
wild-type H37Rv = format: cell-based, Mycobacterium tuberculosis; details: 2.5× MIC, 24 h exposure
Pseudomonas putida = experiment: MIC by REMA; format: cell-based
Pseudomonas aeruginosa = experiment: MIC by REMA; format: cell-based
Mycobacterium avium = experiment: MIC by REMA; format: cell-based
Mycobacterium smegmatis = experiment: MIC by REMA; format: cell-based; details: Mycolicibacterium smegmatis
M. tuberculosis H37Rv [8] = format: cell-based; details: up to a concentration 32-fold higher than the MIC, 7 days
Listeria monocytogenes = experiment: MIC by REMA; format: cell-based
M. bovis BCG = details: cited from earlier work
[9] = system: M. tuberculosis H37Rv-infected THP-1 macrophages; experiment: microbe, parasite or virus in culture; format: cell-based; details: Mycobacterium tuberculosis, THP-1, 48 h, read-out: Antimycobacterial activity against M. tuberculosis H37Rv, ex vivo in THP-1 macrophages (IC50)
Mycobacterium ulcerans = experiment: MIC by REMA; format: cell-based
HepG2 cells = format: cell-based, human
Experimental: Human HepG2 cells (4,000 cells/well) were incubated for 3 days with 2-fold serially diluted compounds at 37°C under an atmosphere of 5% CO2. Cell viability was determined by the addition of resazurin (0.0025% wt/vol) for 4 h at 37°C, and the fluorescence intensity was measured as in REMA.

[10] = system: H37Rv ΔcydAB::cydAB complemented strain; format: cell-based
Enterococcus faecalis = experiment: MIC by REMA; format: cell-based
Micrococcus luteus = experiment: MIC by REMA; format: cell-based
[11] = system: Mycobacterium canettii STB-L; experiment: MIC by REMA; format: cell-based; details: Mycobacterium canetti
Candida albicans = experiment: MIC by REMA; format: cell-based
Bacillus subtilis = experiment: MIC by REMA; format: cell-based
[12] = system: Salmonella enterica serovar Typhimurium; experiment: MIC by REMA; format: cell-based
Mycobacterium marinum = experiment: MIC by REMA; format: cell-based
M. tuberculosis H37Rv [13] = format: cell-based; details: AX-35 14 µM, Q203 0.3 µM (100× MIC50), glucose
in vitro = experiment: in vitro
Experimental: Metabolic stability of the compounds was measured based on intrinsic clearance (Clint) in mouse and human liver microsomes as previously described ([42]). The final compound concentration in the mixture of microsomes and NADPH regeneration system was 2 µg/ml, and a mixture without NADPH regeneration was also prepared for each compound as a control of the stability of the compound with time.

[14] = H37RV; Mycobacterium tuberculosis (Table 2 panel); read-out: MIC
[15] = Mycobacterium tuberculosis, H37RV, 144 h; read-out: Antimycobacterial activity against M. tuberculosis H37Rv, in vitro (MIC)
[16] = Mycobacterium canettii STB-L, read-out: MIC

Row | Structure (SMILES) | MIC [1] | MIC [3] | MIC (Staphylococcus aureus) | MIC [5] | MIC (Mycobacterium bovis BCG) | MIC (M. tuberculosis H37Rv [6]; [15]) | MIC (Escherichia coli) | MIC (Mycobacterium vaccae) | MIC (Pseudomonas putida) | MIC (Pseudomonas aeruginosa) | MIC (Mycobacterium avium) | MIC (Mycobacterium smegmatis) | MIC (Listeria monocytogenes) | IC50 [9] | MIC (Mycobacterium ulcerans) | Cytotoxicity in HepG2 cells (TD50) (HepG2 cells; 3 days incubation) | MIC (Enterococcus faecalis) | MIC (Micrococcus luteus) | MIC (Candida albicans) | MIC (Bacillus subtilis) | also measured
1 | O=C(/C=C/c1cccs1)N1CCN(Cc2ccc3c(c2)OCO3)CC1 [AX-35, (E)-1-(4-(Benzo[d][1,3]dioxol-5-ylmethyl)piperazin-1-yl)-3-(thiophen-2-yl)prop-2-en-1-one] | > 100 µg/mL | 7.7 µg/mL (≈ 21.6 µM) | > 100 µg/mL | > 100 µg/mL | 0.8 µg/mL (≈ 2.24 µM) | 0.05 µg/mL (≈ 0.14 µM) | 74 µg/mL (≈ 208 µM) | 12.1 µg/mL (≈ 33.9 µM) | > 100 µg/mL | > 100 µg/mL | 8.2 µg/mL (≈ 23 µM) | 100 µg/mL (≈ 281 µM) | > 100 µg/mL | 0.1 µg/mL (≈ 0.281 µM) | 1.6 µg/mL (≈ 4.49 µM) | 50 µg/mL | > 100 µg/mL | > 100 µg/mL | > 100 µg/mL | > 100 µg/mL | MIC (M. tuberculosis H37Rv [2]): 0.3 µM (≈ 0.107 µg/mL); Increase in OCR on compound addition [4]: no longer observed; Antimycobacterial activity against M. tuberculosis H37Rv, in vitro (MIC) (M. tuberculosis H37Rv [6]): 0.05 µg/mL; MIC (M. tuberculosis H37Rv [6]; [14]): 0.05 µg/mL (≈ 0.14 µM); Reduction of bacterial load in mouse lungs vs TPGS vehicle control (M. tuberculosis H37Rv [7]; oral 200 mg/kg): 0.4 log10; Intracellular ATP level, lower than untreated control (wild-type H37Rv): ~90%; Mode of action (MBC, 99.9% killed) (M. tuberculosis H37Rv [8]): bacteriostatic; MIC (M. bovis BCG): 0.3 µM (≈ 0.107 µg/mL); Outcome of AX-35 treatment in complemented strain [10]: survival of the bacteria; MIC [11, 16]: 0.003 µg/mL (≈ 0.00842 µM); MIC [12]: > 100 µg/mL; MIC (Mycobacterium marinum): 11.5 µg/mL (≈ 32.3 µM); Oxygen consumption rate (OCR) change from basal on compound addition (M. tuberculosis H37Rv [13]): increase; Clearance Category (in vitro; human, microsomes): medium; microsomal CLint at 2 µg/ml (in vitro; human, microsomes): 21.7 µL/min/mg; Clearance Category (in vitro; mouse, microsomes): high; microsomal CLint at 2 µg/ml (in vitro; mouse, microsomes): 120 µL/min/mg
2 | O=C(/C=C/c1ccsc1)N1CCN(Cc2ccc3c(c2)OCO3)CC1 [AX-36, (E)-1-(4-(Benzo[d][1,3]dioxol-5-ylmethyl)piperazin-1-yl)-3-(thiophen-3-yl)prop-2-en-1-one] | > 100 µg/mL | 10.4 µg/mL (≈ 29.2 µM) | > 100 µg/mL | > 100 µg/mL | 0.8 µg/mL (≈ 2.24 µM) | 0.1 µg/mL (≈ 0.281 µM) | 100 µg/mL (≈ 281 µM) | 26.9 µg/mL (≈ 75.5 µM) | > 100 µg/mL | > 100 µg/mL | 12.8 µg/mL (≈ 35.9 µM) | 63 µg/mL (≈ 177 µM) | > 100 µg/mL | 0.3 µg/mL (≈ 0.842 µM) | 1.6 µg/mL (≈ 4.49 µM) | 37.5 µg/mL | > 100 µg/mL | > 100 µg/mL | > 100 µg/mL | > 100 µg/mL | MIC (M. tuberculosis H37Rv [6]; [14]): 0.1 µg/mL (≈ 0.281 µM); Intracellular ATP level, lower than untreated control (wild-type H37Rv): ~90%; MIC [11, 16]: 0.01 µg/mL (≈ 0.0281 µM); MIC [12]: > 100 µg/mL; MIC (Mycobacterium marinum): 19.6 µg/mL (≈ 55 µM); Clearance Category (in vitro; human, microsomes): medium; microsomal CLint at 2 µg/ml (in vitro; human, microsomes): 16.8 µL/min/mg; Clearance Category (in vitro; mouse, microsomes): high; microsomal CLint at 2 µg/ml (in vitro; mouse, microsomes): 117 µL/min/mg
3 | O=C(/C=C/c1cscn1)N1CCN(Cc2ccc3c(c2)OCO3)CC1 [AX-37, (E)-1-(4-(Benzo[d][1,3]dioxol-5-ylmethyl)piperazin-1-yl)-3-(1λ^3,3λ^2-thiazol-4-yl)prop-2-en-1-one] |  |  |  |  |  | 0.1 µg/mL (≈ 0.28 µM) |  |  |  |  |  |  |  | 0.2 µg/mL (≈ 0.56 µM) |  | 25 µg/mL |  |  |  |  | Reduction of bacterial load in mouse lungs vs TPGS vehicle control (M. tuberculosis H37Rv [7]; oral 100 mg/kg): 0.6 log10
4 | O=C(/C=C/c1ccccc1)N1CCN(Cc2ccc3c(c2)OCO3)CC1 [AX-38, (E)-1-(4-(Benzo[d][1,3]dioxol-5-ylmethyl)piperazin-1-yl)-3-phenylprop-2-en-1-one] |  |  |  |  |  | 0.2 µg/mL (≈ 0.571 µM) |  |  |  |  |  |  |  | 0.3 µg/mL (≈ 0.856 µM) |  | 37.5 µg/mL |  |  |  |  | Clearance Category (in vitro; human, microsomes): medium; microsomal CLint at 2 µg/ml (in vitro; human, microsomes): 13.3 µL/min/mg; Clearance Category (in vitro; mouse, microsomes): high; microsomal CLint at 2 µg/ml (in vitro; mouse, microsomes): 63.8 µL/min/mg
5 | O=C(/C=C/c1nccs1)N1CCN(Cc2ccc3c(c2)OCO3)CC1 [AX-39, (E)-1-(4-(Benzo[d][1,3]dioxol-5-ylmethyl)piperazin-1-yl)-3-(thiazol-2-yl)prop-2-en-1-one] |  |  |  |  |  | 0.3 µg/mL (≈ 0.839 µM) |  |  |  |  |  |  |  | 1.8 µg/mL (≈ 5.04 µM) |  | 75 µg/mL |  |  |  |  | Reduction of bacterial load in mouse lungs vs TPGS vehicle control (M. tuberculosis H37Rv [7]; oral 100 mg/kg): 0.9 log10
6 | NC(=O)N1c2ccccc2C=Cc2ccccc21 [Carbamazepine, reference compound] |  |  |  |  |  |  |  |  |  |  |  |  |  |  |  |  |  |  |  |  | Clearance Category (in vitro; human microsomes, compound 2 µg/ml): low; Clearance Category (in vitro; mouse microsomes, compound 2 µg/ml): low
7 | CCc1nc2ccc(Cl)cn2c1C(=O)NCc1ccc(N2CCC(c3ccc(OC(F)(F)F)cc3)CC2)cc1 [Compound Q203, reference compound] |  |  |  |  |  |  |  |  |  |  |  |  |  |  |  |  |  |  |  |  | Increase in OCR on compound addition [4]: no longer observed; Oxygen consumption rate (OCR) change from basal on compound addition (M. tuberculosis H37Rv [13]): increase
8 | NNC(=O)c1ccncc1 [INH, isoniazid, reference compound] |  |  |  |  |  |  |  |  |  |  |  |  |  |  |  |  |  |  |  |  | log10 CFU per lung (M. tuberculosis H37Rv [7]; 25 mg/kg oral, Day 10): below l.o.d.
9 | CO[C@H]1/C=C/O[C@@]2(C)Oc3c(C)c(O)c4c(O)c(c(/C=N/N5CCN(C)CC5)c(O)c4c3C2=O)NC(=O)/C(C)=C\C=C\[C@H](C)[C@H](O)[C@@H](C)[C@@H](O)[C@@H](C)[C@H](OC(C)=O)[C@@H]1C [Rifampin, rifampin, reference compound] | 0.004 µg/mL (≈ 0.00486 µM) | 26.9 µg/mL (≈ 32.7 µM) | 3.8 µg/mL (≈ 4.62 µM) | 0.0004 µg/mL (≈ 0.000486 µM) | 0.0008 µg/mL (≈ 0.000972 µM) |  | 6.7 µg/mL (≈ 8.14 µM) | 2.5 µg/mL (≈ 3.04 µM) | 0.2 µg/mL (≈ 0.243 µM) | 1 µg/mL (≈ 1.22 µM) | 25 µg/mL (≈ 30.4 µM) | 1.7 µg/mL (≈ 2.07 µM) | 0.8 µg/mL (≈ 0.972 µM) | 0.1 µg/mL (≈ 0.122 µM) | 0.01 µg/mL (≈ 0.0122 µM) |  | 0.6 µg/mL (≈ 0.729 µM) | 0.7 µg/mL (≈ 0.851 µM) | 1.5 µg/mL (≈ 1.82 µM) | 0.3 µg/mL (≈ 0.365 µM) | MIC (M. tuberculosis H37Rv [6]; Mycobacterium tuberculosis, H37RV): 0.001 µg/mL (≈ 0.00122 µM); MIC (M. tuberculosis H37Rv [6]; Mycobacterium tuberculosis, H37RV, 144 h, read-out: Antimycobacterial activity against M. tuberculosis H37Rv, in vitro (MIC)): 0.0008 µg/mL (≈ 0.000972 µM); Cytotoxicity in HepG2 cells (TD50) (HepG2 cells; human): 75 µg/mL; MIC [11]: 0.002 µg/mL (≈ 0.00243 µM); MIC [12]: 0.7 µg/mL (≈ 0.851 µM); MIC (Mycobacterium marinum): 0.5 µg/mL (≈ 0.608 µM)
